According to ChEMBL document CHEMBL1155583, “Steroidal saponins from Dracaena surculosa” (J Nat Prod, 2000):
Converted amounts (≈) assume the structure as drawn.

What follows are molecules tested on HL-60 (assay: Cytotoxicity against human HL60 cells by MTT assay).
Assay type: functional, cell-based
Molecule C[C@@H]1CC[C@@]2(OC1)O[C@H]1C[C@H]3[C@@H]4CC=C5C[C@@H](O[C@@H]6O[C@H](CO)[C@@H](O)[C@H](O)[C@H]6O[C@@H]6O[C@@H](C)[C@H](O)[C@@H](O)[C@H]6O)CC[C@]5(C)[C@H]4CC[C@]3(C)[C@@]1(O)[C@@H]2C has an IC50 of 5.2 µg/mL (≈ 7.04 µM). Molecule C[C@@H]1CC[C@@]2(OC1)O[C@H]1C[C@H]3[C@@H]4CC=C5C[C@@H](O[C@@H]6O[C@H](CO)[C@@H](O[C@@H]7O[C@@H](C)[C@H](O)[C@@H](O)[C@H]7O)[C@H](O)[C@H]6O[C@@H]6O[C@@H](C)[C@H](O)[C@@H](O)[C@H]6O)CC[C@]5(C)[C@H]4CC[C@]3(C)[C@@]1(O)[C@@H]2C has an IC50 of 4.2 µg/mL (≈ 4.75 µM). C[C@H]1CC[C@@]2(OC1)O[C@H]1C[C@H]3[C@@H]4CC=C5C[C@@H](O)C[C@@H](O[C@@H]6O[C@H](C)[C@H](O)[C@H](O)[C@H]6O[C@@H]6O[C@@H](C)[C@H](O)[C@@H](O)[C@H]6O)[C@]5(C)[C@H]4CC[C@]3(C)[C@H]1[C@@H]2C showed an IC50 of 8.7 µg/mL (≈ 12 µM).
